According to patent publication US20250236642A1, “PHARMACEUTICAL COMPOSITION FOR TREATMENT OR PREVENTION OF ADULT T-CELL LEUKEMIA” (NEC Corporation, priority 2022, published 2025):
Where two headings read alike, the source gives them in different places. No end group written: not given here.

Experiments:
[1] = biological target: HLA-A*24:02 molecule (Homo sapiens, UniProt P04439, D101N/D140Y/D185E/E176V/E190D/F33S/G103R/G107R/I119L/I121M/I306V/K335N/L105A/L180Q/L300P/N151K/N90K/Q86E/Q94H/R106L/R138H/R89G/T104I/T345S/V100E/W191G/Y123F); assay: Binding of peptide to HLA-A*24:02 molecule using C1R-A24 cells
Experimental: Measurement of binding ability of a peptide to an HLA-A*24:02 molecule, which is a product of an HLA-A*24:02 gene, was performed using C1R-A24 cells expressing an HLA-A*24:02 molecule (Cells created by Professor Masafumi Takiguchi, Kumamoto University, was provided by Assistant Professor Masaki Yasukawa, Ehime University, with permission).
First, the C1R-A24 cells were exposed to acidic conditions at pH 3.3 for 30 seconds to dissociate and remove an endogenous peptide originally binding to an HLA-A*24:02 molecule and light chain β2m commonly associated with an HLA class I molecule. After neutralization, purified β2m was added to the C1R-A24 cells, and the mixture was added to a peptide dilution series and incubated on ice for four hours.
Thereafter, the number of MHC-peps for each C1R-A24 cell (proportional to a fluorescence intensity of the fluorescent antibody) was quantitatively measured using a fluorescence cell analyzer FACScan (Becton-Dickinson).

[2] = biological target: T1, HLA-A*02:06 molecule (Homo sapiens, UniProt P04439, D140Y/D185E/D98H/E176V/E277Q/F33Y/G131W/G231S/I119V/I121R/I166T/I218V/L300P/L318F/N151K/N90K/P208A/P217A/Q86G/Q94H/R138H/R169H/T345S); assay: Binding of peptide to HLA-A*02:06 molecule using RA2.6 cells
T1 construct: expressed in transfected cells; host or cells: RA2.6 cells (mouse TAP-deficient RMAS with HLA-A*02:06 cDNA)
Experimental: Measurement of binding ability of a peptide to an HLA-A*02:06 molecule, which is a product of an HLA-A*02:06 gene, was performed using RA2.6 cells (a cell line newly created at Kochi University) obtained by introducing cDNA of the HLA-A*02:06 gene into RMAS, which is a mouse transporter associated with antigen processing (TAP)-deficient cell line.
A fluorescently labeled monoclonal antibody BB7.2 that specifically recognizes a peptide binding type HLA-A*02:06 molecule was added thereto, and the mixture was incubated on ice for 20 minutes to stain the cells.

[3] = biological target: T2, HLA-A*02:01 molecule (Homo sapiens, UniProt P04439, D140Y/D185E/D98H/E176V/E277Q/G131W/G231S/I119V/I121R/I166T/I218V/L300P/L318F/N151K/N90K/P208A/P217A/Q86G/Q94H/R138H/R169H/T345S); assay: Binding of peptide to HLA-A*02:01 molecule using cell line T2
T2 construct: using a cell line T2 (purchased from ATCC) expressing an HLA-A*02:01 molecule; host or cells: T2 cell line
Experimental: Measurement of binding ability of a peptide to an HLA-A*02:01 molecule, which is a product of an HLA-A*02:01 gene, was performed using a cell line T2 (purchased from ATCC) expressing an HLA-A*02:01 molecule.
T2 cells and purified β2m were added to a serial dilution series of a peptide whose binding ability was to be measured, and then the mixture was incubated at 37° C. for four hours. HLA-A*02:01 molecules whose expression level increased in a peptide concentration-dependent manner by this time point were stained using an association-type specific fluorescently labeled monoclonal antibody BB7.2.
Thereafter, the amount of fluorescence per cell was measured with a flow cytometer, and a dissociation constant Kd value was calculated by the method disclosed in the article (Udaka et al., Immunogenetics, 51, 816-828, 2000) by the present inventor.

[4] = Table 2, dissociation constant Kd value (−log Kd value), >−3.0 = no significant binding ability, read-out: Measured value of allele A*24:02 (converted)
[5] = Table 2, dissociation constant Kd value (−log Kd value), >−3.0 = no significant binding ability, read-out: Measured value of allele A*02:06 (converted)
[6] = Table 2, dissociation constant Kd value (−log Kd value), >−3.0 = no significant binding ability, read-out: Measured value of allele A*02:01 (converted)
[7] = Measured value of allele A*24:02, Table 2, dissociation constant Kd value (−log Kd value), >−3.0 = no significant binding ability
[8] = Table 4, Kd value (−log Kd value), smaller than −3 = binding property, read-out: Measured value of allele A*24:02 (converted)

Kd [1, 4] [µM] | Kd [2, 5] [µM] | Kd [3, 6] [µM] | Measured value of allele A*02:06 ([2]; Table 2, dissociation constant Kd value (−log Kd value), >−3.0 = no significant binding ability) | Kd [1, 8] [µM] | Measured value of allele A*02:06 ([2]; Table 4, Kd value (−log Kd value), smaller than −3 = binding property) | Sequence | Kd [1, 7] [µM] | Kd [2] [µM] | Kd [3] [µM]
4.69 | 0.392 | 0.265 | – | – | – | ALAPPTAQL [compound 6] | – | – | –
1.09 | 1.43 | 0.216 | – | – | – | ALLAPAVLL [compound 7] | – | – | –
– | – | – | – | – | – | ALPAPHLTL [compound 18] | 0.185 | 3.03 | 1.02
0.66 | 16.6 | 2.19 | – | – | – | ALPKIRARV [compound 12] | – | – | –
– | – | – | – | – | – | ALQFLIPRL [compound 22] | 10.9 | 1.45 | 1.26
– | – | – | – | – | – | ALQPPCPNL [compound 31] | 4.94 | 23.1 | 7.44
0.397 | > 427 | 0.774 | >−3.37 | – | – | ALRPAPALL [compound 26] | – | – | –
– | – | – | – | – | – | AQAPPTAQL [compound 5] | 1.77 | 1.42 | 0.961
> 1000 | 82.1 | > 1000 | – | > 1000 | – | AQISAYRTC [compound 50] | – | – | –
> 1000 | > 1000 | > 1000 | – | > 1000 | – | ARHSTIPLV [compound 77] | – | – | –
29.2 | 0.684 | 10.1 | – | – | – | ATAPPTAQL [compound 25] | – | – | –
> 1000 | > 1000 | 83.1 | – | > 1000 | >−3 | ATGDCSSFI [compound 59] | – | – | –
3.82 | > 1000 | > 1000 | – | – | – | AYRTCWIFS [compound 49] | – | – | –
80.3 | > 1000 | > 1000 | – | – | – | CDLSSFEFF [compound 58] | – | – | –
332 | 5.62 | 14 | – | – | – | CIDEHQWQL [compound 28] | – | – | –
1.36 | 0.474 | 0.216 | – | – | – | CLDEHQWQL [compound 9] | – | – | –
2.91 | 42.4 | > 1000 | – | – | – | CMIVHQGTI [compound 36] | – | – | –
> 1000 | 0.16 | 9.07 | – | > 1000 | – | CTDEHQWQL [compound 39] | – | – | –
2.91 | 18.9 | > 1000 | – | – | – | EAIDGYITL [compound 47] | – | – | –
> 1000 | 426 | > 1000 | – | > 1000 | – | ETLQFIDSM [compound 53] | – | – | –
19.9 | > 1000 | > 1000 | – | – | – | FIDSDSSSW [compound 57] | – | – | –

Kd [1, 4] [µM] | Kd [2, 5] [µM] | Kd [3, 6] [µM] | Measured value of allele A*02:06 ([2]; Table 2, dissociation constant Kd value (−log Kd value), >−3.0 = no significant binding ability) | Kd [1, 8] [µM] | Measured value of allele A*02:06 ([2]; Table 4, Kd value (−log Kd value), smaller than −3 = binding property) | Sequence | Kd [1, 7] [µM] | Kd [2] [µM] | Kd [3] [µM]
> 1000 | 19.3 | 126 | – | > 1000 | – | FSNDFGQSL [compound 35] | – | – | –
> 1000 | > 1000 | > 1000 | – | > 1000 | – | GILSDHQQS [compound 74] | – | – | –
23.4 | > 1000 | > 1000 | – | – | – | GRVMQIDGV [compound 68] | – | – | –
> 1000 | > 1000 | > 1000 | – | > 1000 | – | GSPDEFSND [compound 72] | – | – | –
> 1000 | 218 | > 1000 | – | > 1000 | – | GTHLDAGTV [compound 51] | – | – | –
0.301 | > 1000 | > 1000 | – | – | – | GYITCERPF [compound 65] | – | – | –
> 1000 | > 1000 | > 1000 | – | > 1000 | – | GYITLGKPH [compound 80] | – | – | –
0.923 | > 1000 | 2.06 | – | – | – | HMAKVIEFL [compound 38] | – | – | –
68.4 | > 1000 | > 1000 | – | – | – | HMTSSERPF [compound 64] | – | – | –
– | – | – | – | – | – | IALETPVWI [compound 20] | 3.29 | 3.03 | 7.77
> 1000 | > 1000 | > 1000 | – | > 1000 | – | IFADVSSST [compound 78] | – | – | –
> 1000 | > 1000 | > 1000 | – | > 1000 | – | ILSDHQQSQ [compound 70] | – | – | –
– | – | – | – | – | – | IQYSSFHNL [compound 21] | 0.294 | 2.51 | 5.17
10 | 729 | > 1000 | – | – | – | ISAYRTCWI [compound 34] | – | – | –
0.133 | 1.56 | 1.17 | – | – | – | KFLEAFHEV [compound 8] | – | – | –
> 1000 | 32 | > 1000 | – | > 1000 | – | LAEEHGATL [compound 61] | – | – | –
7.61 | 911 | > 1000 | – | – | – | LAITRKSFI [compound 46] | – | – | –
> 1000 | > 1000 | > 1000 | – | > 1000 | – | LHEEHGATL [compound 79] | – | – | –
17.5 | > 1000 | > 1000 | – | – | – | LHITRKSFI [compound 63] | – | – | –
> 1000 | 15.3 | 31.9 | – | > 1000 | – | LIEEHGATL [compound 40] | – | – | –
2.5 | 230 | 78.1 | – | – | – | LIITRKSFI [compound 29] | – | – | –

Kd [1, 4] [µM] | Kd [2, 5] [µM] | Kd [3, 6] [µM] | Measured value of allele A*02:06 ([2]; Table 2, dissociation constant Kd value (−log Kd value), >−3.0 = no significant binding ability) | Kd [1, 8] [µM] | Measured value of allele A*02:06 ([2]; Table 4, Kd value (−log Kd value), smaller than −3 = binding property) | Sequence | Kd [1, 7] [µM] | Kd [2] [µM] | Kd [3] [µM]
0.23 | 23.7 | 7.39 | – | – | – | LLITRKSFI [compound 16] | – | – | –
11.1 | 10.9 | 0.881 | – | – | – | LLLFSAAAL [compound 1] | – | – | –
0.602 | 296 | 5.74 | – | – | – | LLNPNRQTI [compound 23] | – | – | –
5.98 | 2.1 | 12.1 | – | – | – | LMEEHGATL [compound 13] | – | – | –
0.972 | 29.3 | 6.26 | – | – | – | LMITRKSFI [compound 17] | – | – | –
448 | > 1000 | > 1000 | – | – | – | LPFSPSQFL [compound 60] | – | – | –
> 1000 | > 1000 | > 1000 | – | > 1000 | – | LPPARHSTI [compound 76] | – | – | –
> 1000 | 11.9 | 82.1 | – | > 1000 | – | LTEEHGATL [compound 42] | – | – | –
15 | 162 | > 1000 | – | – | – | LTITRKSFI [compound 45] | – | – | –
> 1000 | 13.7 | 66.1 | – | > 1000 | – | LVEEHGATL [compound 43] | – | – | –
3.47 | 243 | 97.6 | – | – | – | LVITRKSFI [compound 30] | – | – | –
0.0716 | 109 | 2.64 | – | – | – | MLPQTPSHL [compound 24] | – | – | –
1.44 | > 1000 | > 1000 | – | – | – | SLLITRKSF [compound 62] | – | – | –
0.1 | > 1000 | > 1000 | – | – | – | SLPFSPSQF [compound 56] | – | – | –
> 1000 | > 1000 | > 1000 | – | > 1000 | – | SLPNEKQTS [compound 69] | – | – | –
4.89 | 0.572 | 2.36 | – | – | – | SLVLTWAAL [compound 14] | – | – | –
> 1000 | > 1000 | > 1000 | – | > 1000 | – | SPDEFSNDF [compound 73] | – | – | –
> 1000 | 0.0377 | 0.32 | – | > 1000 | – | SSFEFFEEA [compound 37] | – | – | –
4.47 | > 1000 | > 1000 | – | – | – | SSLDPPKVL [compound 55] | – | – | –
